These results are taken from patent publication US20150313824A1, “SKIN CARE COMPOSITION” (Conopco, Inc., d/b/a UNILEVER, priority 2013, published 2015).

For the first assay, the system named is EA.Hy926 cells. Nature of the assay: Measurement of intracellular nitric oxide using flow-cytometry (DAF FM-DA). Type of assay: cell-based, human. Conditions: summary of the data in Table-1. How it is done: The cultured human endothelial cell line EA.Hy926 cells were procured from American Type Culture Collection ([…]) and were cultured in DMEM (Sigma) supplemented with 2 mM L-glutamine, 100 U/ml penicillin, 100 μg/ml streptomycin and 10% vol/vol FBS (Gibco, Invitrogen). Cells were cultured at 37° C. in 95% humidified air with 5% CO2. After attaining 70-80% confluence, the cells were sub-cultured by trypsinization (0.25% Tryp-EDTA, for 2-3 min). For experimental purpose, cells were seeded onto 24 well tissue culture plates (CLS3524 Sigma). […] Measurement of Intracellular Nitric Oxide Using Flow-Cytometry Experimental Flow: […] EAHy926 (5×10^5) cells were seed into 24 well tissue culture plate and allowed to adhere for 12-16 hrs. 2. After adherence, cells were treated with or without 4.41 μg/ml (10 μM) folic acid and incubated for 24 hrs in DMEM without FBS. 3. The cells in 24 well tissue culture plates were loaded with DAF FM-DA (1 μM) for 30 min, washed twice with serum free medium. 4. Subsequently, cells were stimulated with different concentration of EGCG for 30 mins and washed twice with serum free medium. 5. The stimulated cells were trypsinized with 0.25% Trypsin-EDTA and fixed with 2% PFA for 15 min. 6. The suspension of cells were acquired using flow-cytometry. A population of 10,000 cells were gated and segregated based on their relative fluorescence intensities using FACS Calibur (BD; SanDiego). The mean yield of two distinct populations was measured and compared with the respective population in untreated cells. The data on the Nitric Oxide activity is summarized in Table-1 for the various compositions which may be […] catechins (EGCG) alone at various concentrations or folic acid alone or EGCG in combination with folic acid.
As to `O=C(O[C@@H]1Cc2c(O)cc(O)cc2O[C@@H]1c1cc(O)c(O)c(O)c1)c1cc(O)c(O)c(O)c1` [EGCG, (−)-epigallocatechin gallate], the “NO activity, effect of increasing concentration or of combination (in words)” value is “increases NO activity till an EGCG concentration of about 11 μg and thereafter the NO activity decreases”.

The same assay, now with this note: with or without folic acid pretreatment 24 hrs, then EGCG stimulation 30 mins, DAF FM-DA fluorescence compared with untreated cells (1.0 = no increase over untreated sample).
For the compound `O=C(O[C@@H]1Cc2c(O)cc(O)cc2O[C@@H]1c1cc(O)c(O)c(O)c1)c1cc(O)c(O)c(O)c1` [Example 2, EGCG], the NO activity is recorded as 2.87. Take `O=C(O[C@@H]1Cc2c(O)cc(O)cc2O[C@@H]1c1cc(O)c(O)c(O)c1)c1cc(O)c(O)c(O)c1` [Example 3, EGCG]: the NO activity is listed as 2.98. Still for that read-out and setting: for `O=C(O[C@@H]1Cc2c(O)cc(O)cc2O[C@@H]1c1cc(O)c(O)c(O)c1)c1cc(O)c(O)c(O)c1` [Example 4, EGCG] the value was 3.75; for `O=C(O[C@@H]1Cc2c(O)cc(O)cc2O[C@@H]1c1cc(O)c(O)c(O)c1)c1cc(O)c(O)c(O)c1` [Example 5, EGCG], 3.58.

`O=C(O[C@@H]1Cc2c(O)cc(O)cc2O[C@@H]1c1cc(O)c(O)c(O)c1)c1cc(O)c(O)c(O)c1` [Example 6, EGCG]: the NO activity is on record as 2.32.

On to `O=C(O[C@@H]1Cc2c(O)cc(O)cc2O[C@@H]1c1cc(O)c(O)c(O)c1)c1cc(O)c(O)c(O)c1` [Example 7, EGCG], for which the NO activity is recorded as 1.64. Still for that read-out and setting: for `O=C(O[C@@H]1Cc2c(O)cc(O)cc2O[C@@H]1c1cc(O)c(O)c(O)c1)c1cc(O)c(O)c(O)c1` [Example 8, EGCG] the value was 0.63.
